ChEMBL document CHEMBL1201862, “PubChem BioAssay data set” (2004)
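These data come from cells grown in 96-well plates and exposed to compound for 48 hours at five concentrations. GI50 marks 50% less growth.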 Activity calls are given as the source filed them. No stated cut-off is given here; in the data, active = GI50 up to about 1.1 µM and inactive = higher.

Experiments:
Test in all cases: NCI anticancer screen, dose series, 48 h
[1] = test system: BT-549
[2] = test system: NCI-H522
[3] = test system: HCT-15
[4] = test system: MCF7
[5] = test system: HL-60
[6] = test system: MOLT-4
[7] = test system: SW-620
[8] = test system: UACC-257
[9] = test system: UACC-62
[10] = test system: NCI-H226
[11] = test system: UO-31
[12] = test system: EKVX
[13] = test system: PC-3
[14] = test system: OVCAR-8
[15] = test system: SF-539
[16] = test system: OVCAR-4
[17] = test system: 786-0
[18] = test system: OVCAR-3
[19] = test system: NCI-H460
[20] = test system: Malme-3M
[21] = test system: A498
[22] = test system: IGROV-1
[23] = test system: NCI-H23
[24] = test system: SNB-75
[25] = test system: COLO 205
[26] = test system: MDA-MB-435
[27] = test system: OVCAR-5
[28] = test system: U-251
[29] = test system: SN12C
[30] = test system: A549
[31] = test system: K562
[32] = test system: HCC 2998
[33] = test system: SK-OV-3
[34] = test system: CAKI-1
[35] = test system: DU-145
[36] = test system: SK-MEL-28
[37] = test system: SF-268
[38] = test system: HT-29
[39] = test system: CCRF-CEM
[40] = test system: SR
[41] = test system: HCT-116
[42] = test system: T47D
[43] = test system: Hs-578T
[44] = test system: SK-MEL-2
[45] = test system: HOP-92
[46] = test system: SF-295
[47] = test system: MDA-MB-231
[48] = test system: MDA-N
[49] = test system: ACHN
[50] = test system: SK-MEL-5
[51] = test system: NCI/ADR-RES
[52] = test system: LOX IMVI
[53] = test system: RXF 393
[54] = test system: HOP-62
[55] = test system: TK-10
[56] = test system: KM12
[57] = test system: RPMI-8226
[58] = test system: M14
[59] = test system: SNB-19

## CCOP(=O)(CCC(O)CNc1nc(N)nc(Cl)c1/N=N/c1ccc(Cl)cc1)OCC (stereo unspecified)
[1]
  GI50: 7.38 µM (inactive)
[2]
  GI50: 8.99 µM (inactive)
[3]
  GI50: 6.95 µM
[4]
  GI50: 11.5 µM (inactive)
[5]
  GI50: 3.5 µM (inactive)
[6]
  GI50: 6.95 µM (inactive)
[7]
  GI50: 15.9 µM (inactive)
[8]
  GI50: 13.6 µM (inactive)
[9]
  GI50: 13 µM (inactive)
[10]
  GI50: 16.6 µM (inactive)
[11]
  GI50: 4.1 µM (inactive)
[12]
  GI50: 18.8 µM (inactive)
[13]
  GI50: 12.4 µM (inactive)
[14]
  GI50: 17.7 µM (inactive)
[15]
  GI50: > 10 µM (inactive)
[16]
  GI50: 5.24 µM (inactive)
[17]
  GI50: 7.93 µM (inactive)
[18]
  GI50: 10.7 µM (inactive)
[19]
  GI50: 11.1 µM (inactive)
[20]
  GI50: 5.2 µM (inactive)
[21]
  GI50: 10.1 µM (inactive)
[22]
  GI50: 15.2 µM (inactive)
[23]
  GI50: 17 µM (inactive)
[24]
  GI50: 4.5 µM (inactive)
[25]
  GI50: 12.8 µM (inactive)
[26]
  GI50: 13.2 µM (inactive)
[27]
  GI50: 17.6 µM (inactive)
[28]
  GI50: 11 µM (inactive)
[29]
  GI50: 17.2 µM (inactive)
[30]
  GI50: 14.5 µM (inactive)
[31]
  GI50: 13.6 µM (inactive)
[32]
  GI50: 13.3 µM (inactive)
[33]
  GI50: 17.7 µM (inactive)
[34]
  GI50: 2.96 µM (inactive)
[35]
  GI50: 14.2 µM (inactive)
[36]
  GI50: 11.6 µM (inactive)
[37]
  GI50: 15.3 µM (inactive)
[38]
  GI50: 15.3 µM (inactive)
[39]
  GI50: 5.75 µM (inactive)
[40]
  GI50: 7.87 µM (inactive)
[41]
  GI50: 14.7 µM (inactive)
[42]
  GI50: 16.9 µM (inactive)
[43]
  GI50: 5.58 µM (inactive)
[44]
  GI50: 11.6 µM (inactive)
[45]
  GI50: 0.377 µM (active)
[46]
  GI50: 14.3 µM (inactive)
[47]
  GI50: 19.3 µM (inactive)
[48]
  GI50: 12.4 µM (inactive)
[49]
  GI50: 7 µM (inactive)
[50]
  GI50: 12.7 µM (inactive)
[51]
  GI50: 11.5 µM (inactive)
[52]
  GI50: 8.67 µM (inactive)
[53]
  GI50: 6.31 µM (inactive)
[54]
  GI50: 12.5 µM (inactive)
[55]
  GI50: 14.8 µM (inactive)
[56]
  GI50: 19.1 µM (inactive)
[57]
  GI50: 8.47 µM (inactive)

## CC(C)CNC(=O)c1c(NC(=O)c2ccccc2)sc2[nH]c(=O)n(-c3ccccc3)c(=O)c12
[1]
  GI50: 26.4 µM (inactive)
[2]
  GI50: 43.7 µM (inactive)
[3]
  GI50: > 100 µM
[4]
  GI50: > 100 µM (inactive)
[5]
  GI50: 68.9 µM (inactive)
[6]
  GI50: 51.3 µM (inactive)
[7]
  GI50: > 100 µM (inactive)
[8]
  GI50: > 100 µM (inactive)
[9]
  GI50: 64.3 µM (inactive)
[10]
  GI50: > 82.6 µM (inactive)
[11]
  GI50: > 71.4 µM (inactive)
[12]
  GI50: 70.6 µM (inactive)
[13]
  GI50: > 100 µM (inactive)
[14]
  GI50: > 100 µM (inactive)
[15]
  GI50: 46 µM (inactive)
[16]
  GI50: > 64 µM (inactive)
[17]
  GI50: 16.8 µM (inactive)
[18]
  GI50: > 100 µM (inactive)
[19]
  GI50: > 100 µM (inactive)
[20]
  GI50: > 82.8 µM (inactive)
[21]
  GI50: 27.5 µM (inactive)
[22]
  GI50: 74.3 µM (inactive)
[23]
  GI50: 80.5 µM (inactive)
[24]
  GI50: 17.8 µM (inactive)
[25]
  GI50: > 100 µM (inactive)
[58]
  GI50: 91.2 µM (inactive)
[26]
  GI50: > 100 µM (inactive)
[27]
  GI50: > 100 µM (inactive)
[28]
  GI50: 31.3 µM (inactive)
[29]
  GI50: > 100 µM (inactive)
[30]
  GI50: > 100 µM (inactive)
[31]
  GI50: 31 µM (inactive)
[59]
  GI50: 24 µM (inactive)
[32]
  GI50: > 100 µM (inactive)
[33]
  GI50: 23.8 µM (inactive)
[34]
  GI50: > 42.1 µM (inactive)
[35]
  GI50: > 100 µM (inactive)
[36]
  GI50: > 100 µM (inactive)
[37]
  GI50: 37.1 µM (inactive)
[38]
  GI50: > 100 µM (inactive)
[39]
  GI50: 40.5 µM (inactive)
[40]
  GI50: 49.4 µM (inactive)
[41]
  GI50: > 86.3 µM (inactive)
[42]
  GI50: 89.3 µM (inactive)
[43]
  GI50: 14.3 µM (inactive)
[44]
  GI50: 27.5 µM (inactive)
[45]
  GI50: 5.09 µM (inactive)
[46]
  GI50: 19.6 µM (inactive)
[47]
  GI50: 23.2 µM (inactive)
[48]
  GI50: > 100 µM (inactive)
[49]
  GI50: 13.8 µM (inactive)
[50]
  GI50: > 93.1 µM (inactive)
[51]
  GI50: > 97.5 µM (inactive)
[52]
  GI50: > 100 µM (inactive)
[53]
  GI50: 16.6 µM (inactive)
[54]
  GI50: 15.3 µM (inactive)
[55]
  GI50: 37.9 µM (inactive)
[56]
  GI50: > 100 µM (inactive)
[57]
  GI50: > 100 µM (inactive)
